Series [1] deals with T1, C-C chemokine receptor type 4 (Homo sapiens, UniProt P51679).
T1 sequence (P51679 whole entry): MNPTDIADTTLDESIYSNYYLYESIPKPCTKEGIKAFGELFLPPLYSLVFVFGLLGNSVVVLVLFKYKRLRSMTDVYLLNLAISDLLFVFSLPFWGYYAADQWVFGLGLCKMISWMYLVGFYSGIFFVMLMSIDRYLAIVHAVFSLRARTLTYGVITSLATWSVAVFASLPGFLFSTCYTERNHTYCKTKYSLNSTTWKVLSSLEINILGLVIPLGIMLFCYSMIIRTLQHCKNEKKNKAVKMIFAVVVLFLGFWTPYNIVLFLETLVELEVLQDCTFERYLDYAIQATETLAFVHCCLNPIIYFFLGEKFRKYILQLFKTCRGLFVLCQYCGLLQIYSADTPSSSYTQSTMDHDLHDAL
In words: Displacement of [125I]-TARC from human recombinant CCR4 expressed in CHO cell membranes by scintillation counting method.

A short description of series [2]: Kinetic solubility of the compound by chemiluminescent nitrogen detection assay. The format is physicochemical. To be noted: read-out: Kinetic_solubility.
For series [3], the target named is T1, C-C chemokine receptor type 4. In words: (§1) Induction of CCR4 internalisation in human HUT78 cells after 30 mins by flow cytometry. Type of series: functional, cell-based.
The target of series [4] is T2, C-C chemokine receptor type 4 (Homo sapiens) (UniProt P51679).
T2 sequence (whole entry): T1 sequence (P51679 whole entry)
The description is as §1. The format is functional, cell-based.

The target of series [5] is T1, C-C chemokine receptor type 4. In words: Antagonist activity at CCR4 in human PBMC assessed as inhibition of actin polymerization by flow cytometry. Particulars: read-out: pA2 (converted). On the technique in general: In flow cytometry, cells or beads pass a laser one at a time.
Series [6] has the same target. In words: Antagonist activity at human CCR4 expressed in CHO cells by [35S]GTPgammaS assay. Type of series: functional, cell-based. Background: GTPγS is a poorly hydrolysed GTP analogue; its binding reports G protein activation.
Series [7] is described as follows: Volume of distribution in rat at 1 mg/kg. Type of series: ADME, organism-based. To be noted: in vivo.
Series [8] can be described thus: Half life in rat at 1 mg/kg. The format is ADME, organism-based. To be noted: in vivo.
Series [9] can be described thus: Clearance in rat at 1 mg/kg. Type of series: ADME, organism-based. To be noted: in vivo.
Series [10] can be described thus: Plasma protein binding in human. Type of series: ADME, cell-free. Particulars: read-out: PPB (converted).
The next series relates to Rattus norvegicus. As to the kind of experiment: Clearance in rat at 1 mg/kg relative to liver blood flow. The format is ADME, organism-based. Particulars: in vivo.
Series [11] deals with T2, C-C chemokine receptor type 4 (Homo sapiens). As to the kind of experiment: Induction of CCR4 internalisation in human HUT78 cells at 10 nM after 30 mins by flow cytometry. The format is functional, cell-based.

pEC50, pIC50, pKi: −log10 of the molar value. Converted amounts (≈) assume the structure as drawn.

The pKi is the negative decadic logarithm of the Ki, by convention in mol/L. With `O=C(C1CCNC1)N1CCC2(CCN(c3nccc(NCc4ccc(Cl)cc4Cl)n3)CC2)C1.O=C(O)C(F)(F)F` (racemic), the pKi in series [1] is 7.30. For the same compound, the solubility kinetic in [2] is 339 µg/mL.
On to `O=C(C1COCCN1)N1CCC2(CCN(c3nccc(NCc4ccc(Cl)cc4Cl)n3)CC2)C1` (racemic), for which the solubility kinetic in series [2] worked out at 233 µg/mL (≈ 461 µM).
`O=C(C1CCCN1)N1CCC2(CCN(c3nccc(NCc4ccc(F)cc4F)n3)CC2)C1` (racemic): in [1], the pKi was 7.60. Also, the solubility kinetic in series [2] worked out at 175 µg/mL (≈ 383 µM).
`CN(Cc1ccc(Cl)cc1Cl)c1ccnc(N2CCC3(CCN(C(=O)C4CCCN4)C3)CC2)n1` (racemic): the pKi in series [1] was 7.60. The solubility kinetic in [2] is 190 µg/mL (≈ 377 µM).
Take `Cl.Cl.Clc1ccc(CNc2ccnc(N3CCC4(CCNC4)CC3)n2)c(Cl)c1`: in series [1], the pKi was 6.50. In addition, the solubility kinetic in series [2] came out at 144 µg/mL.
With `O=C(C1CCCN1)N1CCC2(CCN(c3nccc(NCc4ccc(Cl)cc4Cl)n3)CC2)C1` (racemic), in [1], the negative logarithm of the Ki (pKi) is 7.60. Also, in series [2], the solubility kinetic is 79 µg/mL (≈ 161 µM).
For orientation: pEC50 means the negative decadic logarithm of the EC50, by convention in mol/L. In the case of `COc1cc2nc(N3CCC(N(C)C(=O)[C@H]4CCCN4)CC3)nc(Nc3ccc(Cl)cc3F)c2cc1OC`, the pEC50 in series [3] was 6.40.
`Clc1ccc(CNc2ccnc(N3CCC4(CCN(C[C@@H]5CCCN5)C4)CC3)n2)c(Cl)c1`: the negative-log Ki (pKi) in [1] is 8.40. Also, the solubility kinetic in [2] was found to be 56 µg/mL (≈ 118 µM). The pEC50 in series [3] was 7.90. Moreover, the Activity in [4] was 56%.
In general, pIC50 refers to the negative decadic logarithm of the IC50, by convention in mol/L. A high value points to a low IC50. Turning to `CN(Cc1ccc(Cl)cc1Cl)c1ccnc(N2CCC3(CCN(CC4CCCN4)C3)CC2)n1` (racemic), in series [1], the pKi was 9.00. Also, the solubility kinetic in series [2] was 141 µg/mL (≈ 288 µM). For the same compound, in series [3], the negative-log EC50 (pEC50) was 6.80. Besides, the Activity in [4] stood at 74%. In addition, the Kb in series [5] was 1000 nM. The pIC50 in [6] was 8.10.
For the compound `O=C([C@@H]1CCCCN1)N1CCC2(CCN(c3nccc(NCc4ccc(Cl)cc4Cl)n3)CC2)C1`, the pKi in [1] was 7.70. The solubility kinetic in series [2] was found to be 170 µg/mL (≈ 338 µM).
Consider `Fc1ccc(CNc2ccnc(N3CCC4(CCN(CC5CCCN5)C4)CC3)n2)c(F)c1` (racemic), for which the negative logarithm of the Ki (pKi) in series [1] is 8.50. Further, in series [2], the solubility kinetic is 160 µg/mL (≈ 362 µM). In [3], this compound showed a pEC50 of 7.80. The compound further had an Activity in series [4] of 62%. In addition, the pIC50 in [6] was 8.10.
With `CNCC(=O)N1CCC2(CCN(c3nccc(NCc4ccc(Cl)cc4Cl)n3)CC2)C1.O=C(O)C(F)(F)F.O=C(O)C(F)(F)F`, the pKi in [1] was 6.90. The solubility kinetic in [2] stood at 138 µg/mL.
The like results for `O=C([C@H]1CCCCN1)N1CCC2(CCN(c3nccc(NCc4ccc(Cl)cc4Cl)n3)CC2)C1` were, in that order, 7.60 and 172 µg/mL (≈ 342 µM).
In the same order, the values of `O=C([C@H]1CCCN1)N1CCC2(CCN(c3nccc(NCc4ccc(Cl)cc4Cl)n3)CC2)C1` are 7.80 and 180 µg/mL (≈ 368 µM).
The like results for `O=C(c1ccccn1)N1CCC2(CCN(c3nccc(NCc4ccc(Cl)cc4Cl)n3)CC2)C1` were, in that order, 7.00 and 17 µg/mL (≈ 34.2 µM).
As for `O=C([C@@H]1CCCN1)N1CCC2(CCN(c3nccc(NCc4ccc(Cl)cc4Cl)n3)CC2)C1`, the pKi in [1] is 7.00. Also, the solubility kinetic in series [2] amounted to 165 µg/mL (≈ 337 µM).
In the case of `O=C([C@H]1CCCCN1)N1CCN(c2nccc(NCc3ccc(Cl)cc3Cl)n2)CC1`, the pKi in series [1] is 8.60. Moreover, the solubility kinetic in series [2] stood at 140 µg/mL (≈ 312 µM). Also, the Kb in series [5] was 174 nM. The compound further had a negative logarithm of the IC50 (pIC50) in [6] of 8.10.
The term Vd denotes the apparent volume that relates the amount in the body to the concentration in plasma or blood. In general, half-life refers to how long it takes for the measured level to halve. What is called clearance is the volume of plasma or blood freed of the substance per unit of time. The low end stands for inefficient removal, the high end for efficient removal. Consider `Clc1ccc(CNc2ccnc(N3CCC4(CCN(CC5CCCN5)C4)CC3)n2)c(Cl)c1` (racemic), for which the negative logarithm of the Ki (pKi) in series [1] is 8.80. This compound had a Vd in series [7] of 5 L/kg. Moreover, the half-life in [8] is 4 h. The same compound yielded a clearance in series [9] of 15 mL/min/kg. For the same compound, in series [2], the solubility kinetic was found to be 270 µg/mL (≈ 568 µM). Moreover, the fraction unbound in series [10] is 0.068. Also, in the series with Rattus norvegicus, the CL was determined as 18%. The Kb in series [5] is 200 nM. The compound further gave a pIC50 in series [6] of 8.10.
Turning to `O=C(C1CCCNC1)N1CCC2(CCN(c3nccc(NCc4ccc(Cl)cc4Cl)n3)CC2)C1` (racemic), the negative-log Ki (pKi) in series [1] was 7.30. Further, the solubility kinetic in [2] worked out at 186 µg/mL (≈ 369 µM).
Consider `C[N+]1(C2CCN(c3ncc(-c4ccc(F)cc4F)c(NCc4ccc(F)cc4F)n3)CC2)CCCCC1`, for which the Activity in [11] is 50%.
`Clc1ccc(CNc2ccnc(N3CCC4(CCN(CC5CCCCN5)C4)CC3)n2)c(Cl)c1` (racemic): the pKi in [1] was 8.60. Further, the solubility kinetic in [2] stood at 182 µg/mL (≈ 372 µM).
For `Clc1ccc(CNc2ccnc(N3CCC4(CCN(C[C@H]5CCCN5)C4)CC3)n2)c(Cl)c1`, the negative-log Ki (pKi) in series [1] was 8.30. Also, the solubility kinetic in [2] is 16 µg/mL (≈ 33.7 µM). For the same compound, the pEC50 in series [3] is 8.20. The Activity in series [4] turned out to be 64%.
On to `O=C(C1CCCCC1)N1CCC2(CCN(c3nccc(NCc4ccc(Cl)cc4Cl)n3)CC2)C1`, for which the pKi in series [1] is 6.20. In series [2], the solubility kinetic was found to be 3 µg/mL (≈ 5.97 µM).

The values above are taken from ChEMBL document CHEMBL3797144, “2,8-Diazaspiro[4.5]decan-8-yl)pyrimidin-4-amine potent CCR4 antagonists capable of inducing receptor endocytosis” (Eur J Med Chem, 2016).
